Reference: patent US20100075984A1, “DICARBONYLIC COMPOUNDS WITH ANTIBACTERIAL ACTIVITY” (LABORATORIOS SALVAT, S.A., priority 2006, published 2010)
Converted amounts (≈) assume the structure as drawn.

What was measured:
[1] = tested on: Streptococcus faecalis (BCM-010); assay: Antimicrobial activity, microdilution in microtiter plate (MIC); format: cell-based; conditions: Streptococcus faecalis BCM-010 (SALVAT collection), two-fold serial dilutions, 96 well plates, incubation 24 h at 35° C.; for MIC: Enterococcus faecalis
Protocol: (§1) In order to assess the antimicrobial activity of the compounds of the present invention a method of microdilution in microtiter plate was used. The compounds were diluted in a nutritious medium and, subsequently, distributed by two-fold serial dilutions in 96 well plates. Then, plates were inoculated with a bacterial suspension. After incubation for 24 h at 35° C. the minimum inhibitory concentration (MIC) of the drug in μg/mL was determined as the lowest concentration of compound which inhibits the growth of the bacterium. Results included in table 7 illustrate the antimicrobial activity of some of the compounds of the present invention in comparison with thus obtained with two compounds (linezolid and eperezolid) of a known antimicrobial activity. The antimicrobial activity of the compound versus Streptococcus faecalis (BCM-010, strain designation as for SALVAT collection) and Staphylococcus aureus (BCM-012, strain designation as for SALVAT collection), respectively, is shown in the different columns.

[2] = tested on: Staphylococcus aureus (BCM-012); assay: as above; format: cell-based; conditions: Staphylococcus aureus BCM-012 (SALVAT collection); two-fold serial dilutions, 96 well plates; incubation 24 h at 35° C.
Protocol: as §1

Row | SMILES | MIC [1] | MIC [2] | BCM-010 MIC [1] | BCM-012 MIC [2]
1 | CC(=O)NC[C@H]1CN(c2ccc(N3CCOCC3)c(F)c2)C(=O)O1 [Linezolid, linezolid, reference compound] | 4 µg/mL (≈ 11.9 µM) | 2 µg/mL (≈ 5.93 µM) |  | 
2 | CNCC(=O)NCC(=O)N1CCN(c2ccc(-c3cc(CNc4ccon4)on3)cc2F)CC1 [I_152] |  |  | 2 µg/mL | 2 µg/mL
3 | CN(CC(=O)N1CCN(c2ccc(-c3cc(CNc4ccon4)on3)cc2F)CC1)C(=O)c1ccc2[nH]cnc2c1 [I_155] |  |  | 2 µg/mL | 2 µg/mL
4 | Cc1ccc(C(=O)N[C@@H](C)C(=O)N2CCN(c3ccc(-c4cc(CO)on4)cc3F)CC2)cn1 [I_213] |  |  | 1 µg/mL | 1 µg/mL
5 | O=CNCC(=O)N1CCN(c2ccc(-c3cc(CNc4ccon4)on3)cc2F)CC1 [I_1] |  |  | 2 µg/mL | 1 µg/mL
6 | CC(=O)NC[C@H]1CN(c2ccc(N3CCN(C(=O)CO)CC3)c(F)c2)C(=O)O1 [Eperezolid, eperezolid, reference compound] | 4 µg/mL (≈ 10.1 µM) | 2 µg/mL (≈ 5.07 µM) |  | 
7 | C[C@@H](NC(=O)c1ncccc1N)C(=O)N1CCN(c2ccc(-c3cc(CNc4ccon4)on3)cc2F)CC1 [I_171] |  |  | 1 µg/mL | 2 µg/mL
8 | O=C(NCC(=O)N1CCN(c2c(F)cc(-c3cc(CNc4ccon4)on3)cc2F)CC1)c1ccc2cccc(O)c2n1 [I_160] |  |  | 0.25 µg/mL | 0.25 µg/mL
9 | O=C(NCC(=O)N1CCN(c2ccc(-c3cc(CNc4ccon4)on3)cc2F)CC1)Nc1ccc([N+](=O)[O-])cc1 [Ia_1, 1-[2-(4-{2-Fluoro-4-[5-(isoxazol-3-ylaminomethyl)isoxazol-3-yl]phenyl}piperazin-1-yl)-2-oxoethyl]-3-(4-nitrophenyl)urea] | 2 µg/mL (≈ 3.54 µM) | 1 µg/mL (≈ 1.77 µM) |  | 
10 | O=C(NCC(=O)N1CCN(c2ccc(-c3cc(CNc4ccon4)on3)cc2F)CC1)c1ccc([N+](=O)[O-])o1 [I_58] |  |  | 0.5 to 1 µg/mL | 0.25 µg/mL
11 | Cc1ccc(C(=O)N[C@H](C(=O)N2CCN(c3ccc(-c4cc(CNc5ccon5)on4)cc3F)CC2)C(C)C)cn1 [I_170] |  |  | 4 µg/mL | 4 µg/mL
12 | O=C(NC(C(=O)N1CCN(c2ccc(-c3cc(CNc4ccon4)on3)cc2F)CC1)c1ccccc1)c1ccc2[nH]cnc2c1 (centres unmarked) [I_153] |  |  | 2 µg/mL | 2 µg/mL
13 | O=C(NCC(=O)N1CCN(c2ccc(-c3cc(CO)on3)cc2F)CC1)c1ccc2cccc(O)c2n1 [I_192] |  |  | 0.5 µg/mL | 0.5 µg/mL

Second part, the molecule after the results:

Row | MIC [1] | MIC [2] | BCM-010 MIC [1] | BCM-012 MIC [2] | SMILES
14 |  |  | 1 µg/mL | 1 µg/mL | CC(=O)Nc1ccc(C(=O)NCC(=O)N2CCN(c3ccc(-c4cc(CNc5ccon5)on4)cc3F)CC2)cn1 [I_117]
15 |  |  | 2 µg/mL | 1 µg/mL | C#CCn1c(C)nc2cc(C(=O)NCC(=O)N3CCN(c4ccc(-c5cc(CNc6ccon6)on5)cc4F)CC3)ccc21 [I_84]
16 |  |  | 0.25 to 0.5 µg/mL | 0.25 to 0.5 µg/mL | O=C(NCC(=O)N1CCN(c2ccc(-c3cc(CNc4ccon4)on3)cc2F)CC1)c1cccc(O)c1 [I_15]
17 |  |  | 2 µg/mL | 2 µg/mL | Cc1nc2cc(C(=O)NCC(=O)N3CCN(c4ccc(-c5cc(CNc6ccon6)on5)cc4F)CC3)ccc2n1CC1CC1 [I_82]
18 |  |  | 1 µg/mL | 1 µg/mL | Cc1ncc(-c2cccc(C(=O)NCC(=O)N3CCN(c4ccc(-c5cc(CNc6ccon6)on5)cc4F)CC3)c2)s1 [I_51]
19 |  |  | 0.25 to 0.5 µg/mL | 0.25 to 0.5 µg/mL | Nc1ccc(C(=O)NCC(=O)N2CCN(c3ccc(-c4cc(CNc5ccon5)on4)cc3F)CC2)c(O)c1 [I_32]
